Biological target: T1, RIPK2 (full length FLAG His tagged RIPK2; RIP2 kinase) (Homo sapiens, UniProt O43353)
T1 construct: Full length FLAG His tagged RIPK2 was purified from a Baculovirus expression system; FLAG (N); 6His (N); made in house; host or cells: Spodoptera frugiperda (Sf9) insect cells, baculovirus
Assay: Fluorescent polarization based binding assay, competition with a fluorescently labeled ATP competitive ligand at the ATP binding pocket of RIPK2
Conditions: pIC50s averaged, minimum of 2 experiments; fluorescent ligand 5 nM; read-out: mean pIC50 (converted)
From the text: A fluorescent polarization based binding assay was developed to quantitate interaction of novel test compounds at the ATP binding pocket of RIPK2, by competition with a fluorescently labeled ATP competitive ligand. Full length FLAG His tagged RIPK2 was purified from a Baculovirus expression system and was used at a final assay concentration of twice the KDapparent. A fluorescent labeled ligand (5-({[2-({[3-({4-[(5-hydroxy-2-methylphenyl)amino]-2-pyrimidinyl}amino)phenyl]carbonyl}amino)ethyl]amino}carbonyl)-2-(6-hydroxy-3-oxo-3H-xanthen-9-yl)benzoic acid, prepared as described below) was used at a final assay concentration of 5 nM. Both the enzyme and ligand were prepared in solutions in 50 mM HEPES pH7.5, 150 mM NaCl, 10 mM MgCl2, 1 mM DTT, and 1 mM CHAPS. Test compounds were prepared in 100% DMSO and […] was dispensed to individual wells of a multiwell plate. Next, 5 ul RIPK2 was added to the test compounds at twice the final assay concentration, and incubated at room temperature for 10 minutes. […] Finally, samples were read on an instrument capable of measuring fluorescent polarization. Test compound inhibition was expressed as percent (%) inhibition of internal assay controls.
For concentration response experiments, normalized data were fit and pIC50s determined using conventional techniques. […]

T1 sequence (O43353 whole entry): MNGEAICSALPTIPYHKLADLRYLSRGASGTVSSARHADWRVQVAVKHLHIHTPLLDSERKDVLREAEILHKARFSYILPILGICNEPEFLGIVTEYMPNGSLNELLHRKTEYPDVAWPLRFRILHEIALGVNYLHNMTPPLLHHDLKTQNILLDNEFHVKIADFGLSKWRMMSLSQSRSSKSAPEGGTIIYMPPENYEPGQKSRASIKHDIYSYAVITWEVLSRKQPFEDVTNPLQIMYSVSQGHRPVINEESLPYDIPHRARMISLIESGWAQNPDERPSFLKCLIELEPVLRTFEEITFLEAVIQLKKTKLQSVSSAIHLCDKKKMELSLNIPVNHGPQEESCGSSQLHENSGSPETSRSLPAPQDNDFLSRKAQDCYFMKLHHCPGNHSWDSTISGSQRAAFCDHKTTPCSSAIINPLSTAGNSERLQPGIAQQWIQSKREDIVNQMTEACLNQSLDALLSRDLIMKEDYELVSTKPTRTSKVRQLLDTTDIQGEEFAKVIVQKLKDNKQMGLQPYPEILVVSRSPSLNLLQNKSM

IC50 [µM] | Compound
10 | CNC(=O)c1ccc2c(c1)nc(-c1c[nH]c(-c3ccc(Cl)cc3)n1)n2Cc1ccccn1 [Example 2, 2-[2-(4-chlorophenyl)-1H-imidazol-4-yl]-N-methyl-1-(2-pyridinylmethyl)-1H-benzimidazole-5-carboxamide]
10 | COCCNC(=O)c1ccc2c(c1)nc(-c1cnc(-c3ccccc3)[nH]1)n2CCOC [Example 39, N,1-bis[2-(methyloxy)ethyl]-2-(2-phenyl-1H-imidazol-4-yl)-1H-benzimidazole-5-carboxamide]

— patent publication US20130018039A1, “IMIDAZOLYL-IMIDAZOLES AS KINASE INHIBITORS” (priority 2010, published 2013)
